Where a SMILES comes first, the peptide text is derived from it. Where no end group is shown, it is not given here. [ ]: non-standard residue; d: D form.
What was measured:
[1] = biological target: T1, complexes of GFP-MUC1-CD and Flag-MUC1-CD (Homo sapiens, UniProt P15941); assay: Coprecipitation of GFP-MUC1-CD and Flag-MUC1-CD in transfected 293 cells; format: cell-based; settings: 5 μM peptide for 3 d
T1 construct: expressed in transfected cells; host or cells: 293 cells
T1 sequence (P15941 1184-1255 limits assumed): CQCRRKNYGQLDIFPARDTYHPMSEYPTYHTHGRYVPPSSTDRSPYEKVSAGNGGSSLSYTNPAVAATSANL
Protocol: FIGS. 1A-D. MUC1/CQC peptide blocks MUC1 oligomerization. (FIG. 1A) Schematic representation of the MUC1-C subunit and the 72-amino acid sequence of MUC1-CD (SEQ ID NO: 1) are shown. The N-terminal 15 amino acids (shaded sequence; SEQ ID NO: 3) MUC1/CQC (SEQ ID NO: 63) and mutated MUC1/AQA (SEQ ID NO: 60) peptides were synthesized with the poly-dArg transduction domain. (FIG. 1B) His-MUC1-CD (1.4 mg/ml) was immobilized on a sensor chip in a BIAcore. MUC1/CQC was injected over the chip at 10 μM. Raw binding data were analyzed by BIAevaluation software version 3.0 and fit to a 1:1 Languir binding model. (FIG. 1C) Purified His-MUC1-CD (1.5 mg/ml) was incubated with PBS, 200 μM MUC1/CQC or 200 μM MUC1/AQA for 1 h at room temperature. The proteins were separated in a non-reducing SDS-polyacrylamide gel and analyzed by immunoblotting with anti-MUC1-C. […]
Whole cell and nuclear lysates were prepared as described (Leng et al., 2007). […] Immunoprecitates and soluble proteins were analyzed by immunoblotting with anti-His (Cell Signaling Technology, Danvers, Mass.), anti-GFP (Millipore, Danvers, Mass.), anti-Flag, anti-MUC1-C (Abl; NeoMarkers, Fremont, Calif.), anti-lamin B (EMD, La Jolla, Calif.) or anti-β-actin (Sigma). Reactivity was detected with horseradish peroxidase-conjugated second antibodies and chemiluminescence. […]

ZR-75-1 cells = assay: Cell cycle distribution, apoptosis and necrosis by flow cytometry, ZR-75-1; format: cell-based, human; settings: 5 μM; for induction of necrosis: detectable at 72 h, more prominent at 96 h
Protocol: FIGS. 3A-D. MUC1/CQC peptide induces S phase arrest and necrosis. ZR-75-1 (FIGS. 3A-B) and MCF-7 (FIGS. 3C-D) cells were treated with 5 μM MUC1/CQC or MUC1/AQA for 3 and 4 d. Cells were fixed and analyzed for cell cycle distribution by flow cytometry (FIGS. 3A and 3C). The percentage of cells in G1, S and G2/M phases is included in the panels. Cells were also stained with propidium iodide and analyzed by flow cytometry for necrosis (FIGS. 3B and 3D). The percentage of necrotic cells is included in the panels.
Cells were harvested, washed with PBS, fixed with 80% ethanol, and incubated in PBS containing 40 μg/ml RNAse and 40 μg/ml propidium iodide for 30 min at 37° C. Cell cycle distribution was determined by flow cytometry. Sub-G1 DNA content was assessed by staining ethanol-fixed and citrate buffer-permeabilized cells with propidium iodide and monitoring by flow cytometry as described (Yin et al., 2007). For assessment of necrosis, cells were incubated with 1 μg/ml propidium iodide/PBS for 5 min at room temperature and then monitored by flow cytometry as described (Yin et al., 2007).
To determine whether the MUC1/CQC peptide affects growth, ZR-75-1 cells were treated with 5 μM MUC1/CQC for 72 h and monitored for cell cycle distribution. […] These findings indicate that the MUC1/CQC peptide inhibits growth and induces necrosis of human breast cancer cells.

Compound	interaction between Flag-MUC1-CD and GFP-MUC1-CD [1]	sub-G1 DNA content (apoptosis) (ZR-75-1 cells)	cell cycle distribution (ZR-75-1 cells; 72 h)	S phase population (ZR-75-1 cells; 96 h)	induction of necrosis (ZR-75-1 cells)
CC[C@H](C)[C@H](NC(=O)[C@H](CC(=O)O)NC(=O)[C@H](CC(C)C)NC(=O)[C@H](CCC(N)=O)NC(=O)CNC(=O)[C@H](Cc1ccc(O)cc1)NC(=O)[C@H](CC(N)=O)NC(=O)[C@H](CCCCN)NC(=O)[C@H](CCCNC(=N)N)NC(=O)[C@H](CCCNC(=N)N)NC(=O)[C@H](CS)NC(=O)[C@H](CCC(N)=O)NC(=O)[C@H](CS)NC(=O)[C@@H](CCCNC(=N)N)NC(=O)[C@@H](CCCNC(=N)N)NC(=O)[C@@H](CCCNC(=N)N)NC(=O)[C@@H](CCCNC(=N)N)NC(=O)[C@@H](CCCNC(=N)N)NC(=O)[C@@H](CCCNC(=N)N)NC(=O)[C@@H](CCCNC(=N)N)NC(=O)[C@@H](CCCNC(=N)N)NC(=O)[C@H](N)CCCNC(=N)N)C(=O)N[C@@H](Cc1ccccc1)C(=O)N1CCC[C@H]1C(=O)O [MUC1/CQC] (H-[dR][dR][dR][dR][dR][dR][dR][dR][dR]CQCRRKNYGQLDIFP-OH; N-terminus and C-terminus assumed)	disruption of the interaction	little if any accumulation of cells with sub-G1 DNA content	substantial arrest in S phase	S phase population was decreased	induction of necrosis
MUC1/AQA: control peptide in which the CQC motif was altered to AQA, with poly-dArg transduction domain; SEQ ID NO: 60 ([dR][dR][dR][dR][dR][dR][dR][dR][dR]AQARRKNYGQLDIFP) [reference compound]	no apparent effect				not

— US9546201B2, “MUC-1 cytoplasmic domain peptides as inhibitors of cancer” (DANA-FARBER CANCER INSTITUTE, INC., priority 2008, dated 2017)
